Measured values reported in US20050020565A1, “CCK-1 receptor modulators” (priority 2003, published 2005).

Target: T1, CCK-1 receptor (Homo sapiens, UniProt P32238)
T1 construct: expressed in transfected cells; membranes
T1 sequence (P32238 1-428): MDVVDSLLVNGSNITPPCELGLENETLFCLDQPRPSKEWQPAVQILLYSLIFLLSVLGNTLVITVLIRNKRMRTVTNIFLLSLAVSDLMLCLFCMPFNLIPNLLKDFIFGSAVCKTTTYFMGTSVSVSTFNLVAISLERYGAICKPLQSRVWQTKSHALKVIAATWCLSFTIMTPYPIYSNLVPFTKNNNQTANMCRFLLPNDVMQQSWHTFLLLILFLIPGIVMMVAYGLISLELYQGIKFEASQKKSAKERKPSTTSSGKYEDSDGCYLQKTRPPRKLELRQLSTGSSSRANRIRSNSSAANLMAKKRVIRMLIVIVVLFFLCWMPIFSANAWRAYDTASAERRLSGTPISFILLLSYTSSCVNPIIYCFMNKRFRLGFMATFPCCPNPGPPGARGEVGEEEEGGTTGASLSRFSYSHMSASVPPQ
Experiment: CCK-1 receptor radioligand binding assay ([125I]-BH-CCK-8S displacement, membranes of stably transfected CHO-K1 cells)
Conditions: membranes of CHO-K1 cells stably transfected with CCK-1 receptor, 0.3 μM PD-134,308 present
Procedure: CHO-K1 cells that had undergone-stable transfection with the CCK-1 receptor were grown in DMEM supplemented with L-glutamine (2 mM), penicillin (50 units/mL) and streptomycin (50 μg/mL). Cells were cultured under continuous G418 selection (2 mM) and were harvested using a rubber cell scraper. CHO-K1 cells were sub-cultured a maximum of ten times before being reseeded from the original stocks.
Membranes were prepared from the stably transfected CHO-K1 cells. Frozen cell pellets (−40° C.) were thawed in 14 mL of buffer A (10 mM HEPES, 130 mM NaCl, 4.7 mM KCl, 5 mM MgCl, 1 mM EGTA and 15.4 mg/100 mL bacitracin at pH 7.2), adapted from Harper et al. (Br. J. Pharmacol. (1996) 118, pp 1717-1726). The thawed pellets were homogenized using a Polytron PT-10 (7×1 s). The homogenates were centrifuged for 5 min at 1500 rpm (600×g), and the resulting pellets were discarded. The supernatants were re-centrifuged in order to collect the receptor-membrane pellets (25 min 15,000 rpm; 39,800×g), which were re-suspended in buffer A.
All assays were conducted in 96-well plates (GF/B millipore filter plates) using buffer A, with 0.3 μM PD-134,308, for the dilutions. The CCK-2 receptor ligand was included to eliminate the contribution of this receptor subtype to the binding. For the optimal cell number determination experiments 20 pM [1251]-BH—CCK-8S (50 μL 60 pM solution) was incubated with a range of cell concentrations (2.5×105 to 12.5×10^5 cells/well) in a total volume of 150 μL. Total binding of [1251]-BH—CCK-8S was determined in the presence of 15 μL of buffer A. Non-specific binding of [1 251]-BH—CCK-8S was determined in the presence of 15 μL of 100 μM 2-naphthalenesulphonyl L-aspartyl-(2-phenethyl)amide (2-NAP: see R. A. Hull et al., Br. J. Pharmacol. (1993) 108, pp 734-740), a CCK-1 receptor selective antagonist that is structurally unrelated to the radioligand [1251]-BH—CCK-8S. The assay preparation was incubated for 1 h at 21±3° C., and then the assay was terminated upon rapid filtration of the preparation under reduced pressure. The loaded filters were washed three times using undiluted PBS (100 μL), and then the residues were transferred to 5 mL scintillation tubes. Bound radioactivity was determined using a gamma counter (count time=1 min). From these experiments a cell concentration of 1 pellet in 40 mL of buffer (2.5×10^6 cells/mL) was chosen for use in other assays (below). To validate the radioligand concentration and incubation time for the assay, saturation and kinetic binding studies were also conducted (see M. F. Morton, The Pharmacological Characterization of Cholecystokinin Receptors in the Human Gastrointestinal Tract. PhD Thesis, University of London, 2000). The affinity of novel compounds was estimated by incubating membrane preparations with 15 μL of competing ligand (0.1 pM-1 mM) for 60 min at 21±3° C. The assay was then terminated according to the procedure outlined above.
The pKi values were determined using the equation of Cheng and Prusoff (Biochem. Pharmacol. (1973) 22, pp 3099-3108): [formula]
To circumvent problems associated with computer-assisted data analysis of compounds with low affinity, the data obtained in the current study were weighted according to a method described by Morton (2000). In brief, 100% and 0% specific binding were defined independently using total binding and binding obtained in the presence of a high concentration of the reference antagonist, 2-NAP.

SMILES | Ki [nM]
COc1ccc(-n2nc(C[C@H](C(=O)O)c3cccc(C)c3)cc2-c2ccc(Cl)c(Cl)c2)cc1 [Example 1] | 10
COc1ccc(-n2nc(C[C@@H](C(=O)O)c3cccc(C)c3)cc2-c2ccc(Cl)c(Cl)c2)cc1 [Example 3] | 251
COc1ccc(-n2nc(CC(C(=O)O)c3cccc(Cl)c3)cc2-c2ccc(C)cc2)cc1 (centres unmarked) [Example 7] | 7.94
COc1ccc(-n2nc(CC(C(=O)O)c3cccc(F)c3F)cc2-c2ccc(Cl)c(Cl)c2)cc1 (centres unmarked) [Example 18] | 39.8
COc1ccc(-n2nc(CC(C(=O)O)c3ccccc3C(F)(F)F)cc2-c2ccc(Cl)c(Cl)c2)cc1 (centres unmarked) [Example 19] | 31.6
Cc1ccc(-c2cc(CC(C(=O)O)c3cccc(C(F)(F)F)c3F)nn2-c2ccc(Cl)c(Cl)c2)cc1 (centres unmarked) [Example 21] | 158
Cc1ccc(-c2cc(CC(C(=O)O)c3cccc(I)c3)nn2-c2ccc(Cl)c(Cl)c2)cc1 (centres unmarked) [Example 24] | 20
Cc1ccc(-c2cc(CC(C(=O)O)c3cccc(SC(F)(F)F)c3)nn2-c2ccc(Cl)c(Cl)c2)cc1 (centres unmarked) [Example 26] | 79.4
COc1ccc(-n2nc(C[C@@H](C(=O)O)c3cccc4ccccc34)cc2-c2ccc3c(c2)OCO3)cc1 [Example 28] | 1260
COc1ccc(-n2nc(C[C@H](C(=O)O)c3cccc4ccccc34)cc2-c2ccc3c(c2)OCO3)cc1 [Example 29] | 39.8
COc1ccc(-c2cc(C[C@@H](C(=O)O)c3cccc(OC)c3)nn2-c2ccc(OC)cc2)cc1 [Example 31] | 1000
COc1ccc(-c2cc(C[C@H](C(=O)O)c3cccc(OC)c3)nn2-c2ccc(OC)cc2)cc1 [Example 32] | 63.1
COc1ccc(-n2nc(CC(C(=O)O)c3cccc(Cl)c3)cc2-c2ccc(Cl)cc2)cc1 (centres unmarked) [Example 37] | 20
Cc1ccc(-c2cc(CC(C(=O)O)c3cccc(C)c3)nn2-c2ccc(C)cc2)cc1 (centres unmarked) [Example 40] | 7.94
COc1cccc(C(Cc2cc(-c3ccc(C)cc3)n(-c3ccc(Cl)c(Cl)c3)n2)C(=O)O)c1 (centres unmarked) [Example 42] | 6.31
Cc1ccc(-c2cc(CC(C(=O)O)c3ccccc3Cl)nn2Cc2ccccc2)cc1 (centres unmarked) [Example 43] | 100
Cc1ccc(-c2cc(CC(C(=O)O)c3cccc(Cl)c3Cl)nn2-c2ccc(Cl)c(Cl)c2)cc1 (centres unmarked) [Example 46] | 20
Cc1cccc(C(Cc2cc(-c3ccc4ccccc4c3)[nH]n2)C(=O)O)c1 (centres unmarked) [Example 47] | 200
Cc1cccc(C(Cc2cc(-c3ccc(Cl)c(Cl)c3)nn2C)C(=O)O)c1 (centres unmarked) [Example 48] | 79.4
Cc1cccc(C(Cc2cc(-c3ccc4ccccc4c3)nn2C2CCCCC2)C(=O)O)c1 (centres unmarked) [Example 50] | 100
Cc1cccc(C(Cc2cc(-c3ccc4ccccc4c3)n(C3CCCCC3)n2)C(=O)O)c1 (centres unmarked) [Example 51] | 5.01
Cc1cccc(C(Cc2cc(-c3ccc4ccccc4c3)n(-c3ccccn3)n2)C(=O)O)c1 (centres unmarked) [Example 52] | 10
Cc1cccc(C(Cc2cc(-c3ccc(Cl)c(Cl)c3)n(-c3ccc(S(C)(=O)=O)cc3)n2)C(=O)O)c1 (centres unmarked) [Example 54] | 39.8
Cc1cccc(C(Cc2cc(-c3cccnc3)n(-c3ccc(Cl)cc3Cl)n2)C(=O)O)c1 (centres unmarked) [Example 56] | 50.1
Cc1cccc(C(Cc2cc(-c3ccc(OCc4ccccc4)cc3)n(-c3ccc(OC(F)(F)F)cc3)n2)C(=O)O)c1 (centres unmarked) [Example 58] | 501
Cc1ccc(-n2nc(CC(C(=O)O)c3cccc(C)c3)cc2-c2ccc(N(C)C)cc2)cc1 (centres unmarked) [Example 59] | 3.16
COc1cc(-c2cc(CC(C(=O)O)c3cccc(C)c3)nn2-c2ccc(C)cc2)ccc1C (centres unmarked) [Example 60] | 5.01

SMILES | Ki [nM]
COc1ccc(-n2nc(CC(C(=O)NC3CCCCC3O)c3cccc(C)c3)cc2-c2ccc(C)cc2)cc1 (centres unmarked) [Example 64] | 50.1
COc1ccc(-n2nc(CC(C(N)=O)c3cccc(C)c3)cc2-c2ccc(C)cc2)cc1 (centres unmarked) [Example 65] | 2000
COc1ccc(-n2nc(CC(C(=O)N(C)C)c3cccc(C)c3)cc2-c2ccc(C)cc2)cc1 (centres unmarked) [Example 66] | 20
COc1ccc(-n2nc(CC(C(=O)N3CCN(C)CC3)c3cccc(C)c3)cc2-c2ccc(C)cc2)cc1 (centres unmarked) [Example 68] | 251
COc1ccc(-n2nc(CC(C(=O)O)c3c[nH]c4ccccc34)cc2-c2ccc(C)cc2)cc1 (centres unmarked) [Example 71] | 25.1
COc1ccc(-n2nc(CC(C(=O)O)c3cn(C)c4ccccc34)cc2-c2ccc(C)cc2)cc1 (centres unmarked) [Example 72] | 50.1
COc1ccc(-n2nc(CC(c3cccc(C)c3)c3nnn[nH]3)cc2-c2ccc(C)cc2)cc1 (centres unmarked) [Example 74] | 6.31
COc1ccc(-n2nc(/C=C(/C(=O)O)c3cccc(C)c3)cc2-c2ccc(Cl)c(Cl)c2)cc1 [Example 75] | 79.4
Cc1ccc(-n2nc(CC(C(=O)O)c3cccc(C)c3)cc2-c2ccc(Br)cc2)cc1 (centres unmarked) [Example 77] | 15.8
Cc1cccc(C(Cc2cc(-c3cccc4ccccc34)nn2-c2ccccn2)C(=O)O)c1 (centres unmarked) [Example 79] | 126
Cc1cccc(C(Cc2cc(-c3ccc4ccccc4c3)n(-c3ccc(C(F)(F)F)cn3)n2)C(=O)O)c1 (centres unmarked) [Example 80] | 12.6
Cc1cccc(C(Cc2cc(-c3ccc4c(c3)OCO4)nn2CC2CCCCC2)C(=O)O)c1 (centres unmarked) [Example 82] | 1260
Cc1cccc(C(Cc2cc(-c3ccc4ccccc4c3)nn2Cc2ccccc2)C(=O)O)c1 (centres unmarked) [Example 83] | 63.1
Cc1ccc(-n2nc(CC(C(=O)O)c3cccc(C)c3)cc2-c2ccc(N(C)C)cc2)cc1 (centres unmarked) [Example 86] | 3.98
Cc1ccc(-n2nc(CC(C(=O)O)c3cccc(C)c3)cc2-c2ccc3c(c2)CCN3C)cc1 (centres unmarked) [Example 87] | 25.1
Cc1cccc(C(Cc2cc(-c3ccc4ccccc4c3)nn2Cc2ccncc2)C(=O)O)c1 (centres unmarked) [Example 88] | 39.8
Cc1ccc(-n2nc(-c3cccc(N(C)C)c3)cc2CC(C(=O)O)c2cccc(C)c2)cc1 (centres unmarked) [Example 90] | 794
Cc1ccc(-n2nc(CC(C(=O)O)c3cccc(C)c3)cc2-c2cccc(N(C)C)c2)cc1 (centres unmarked) [Example 91] | 12.6
Cc1cccc([C@H](Cc2cc(-c3ccc4ccccc4c3)n(-c3ccccn3)n2)C(=O)O)c1 [Example 92] | 6.31
Cc1cccc([C@@H](Cc2cc(-c3ccc4ccccc4c3)n(-c3ccccn3)n2)C(=O)O)c1 [Example 93] | 251
Cc1ccc(-n2nc(CC(C(=O)O)c3cccc(C)c3)cc2-c2ccc(N(C)C(C)C)cc2)cc1 (centres unmarked) [Example 101] | 15.8
Cc1ccc(-n2nc(CC(C(=O)O)c3cccc(C)c3)cc2-c2ccc(N3CCCC3=O)cc2)cc1 (centres unmarked) [Example 104] | 39.8
Cc1cccc(C(Cc2cc(-c3ccc4ccccc4c3)n(-c3cccc[n+]3[O-])n2)C(=O)O)c1 (centres unmarked) [Example 105] | 316
Cc1ccc(-n2nc(CC(C(=O)O)c3cccc(C)c3)cc2-c2ccc3ncccc3c2)cc1 (centres unmarked) [Example 106] | 63.1
O=C(O)/C(=C\c1cc(-c2ccc(Cl)c(Cl)c2)n(-c2ccccn2)n1)c1cccc(Cl)c1 [Example 110] | 12.6
O=C(O)/C(=C\c1cc(-c2ccc(Cl)c(Cl)c2)n(-c2cc(Cl)ccc2Cl)n1)c1cccc(Cl)c1 [Example 111] | 3.98
